Test results: patent US7041687B2, “Indazole compounds useful as protein kinase inhibitors” (Vertex Pharmaceuticals Incorporated, priority 2002, dated 2006)
pKi: −log10 of the molar value.

What was measured:
Format in all cases: biochemical
PKA = PKA (Homo sapiens, UniProt P17612); assay: PKA inhibition assay (standard coupled enzyme assay); details: 50 μM ATP, 80 μM Kemptide, 18 nM PKA, 30° C.
Experimental: Compounds were screened for their ability to inhibit PKA using a standard coupled enzyme assay (Fox et al., Protein Sci., (1998) 7, 2249). Assays were carried out in a mixture of 100 mM HEPES 7.5, 10 mM MgCl2, 25 mM NaCl, 1 mM DTT and 3% DMSO. Final substrate concentrations in the assay were 50 μM ATP (Sigma Chemicals) and 80 μM peptide (Kemptide, American Peptide, Sunnyvale, Calif.). Assays were carried out at 30° C. and 18 nM PKA. Final concentrations of the components of the coupled enzyme system were 2.5 mM phosphoenolpyruvate, 300 μM NADH, 30 μg/ml pyruvate kinase and 10 μg/ml lactate dehydrogenase.
An assay stock buffer solution was prepared containing all of the reagents listed above, with the exception of ATP, and the test compound of interest. 55 μl of the stock solution was placed in a 96 well plate followed by addition of 2 μl of DMSO stock containing serial dilutions of the test compound (typically starting from a final concentration of 5 μM). The plate was preincubated for 10 minutes at 30° C. and the reaction initiated by addition of 5 μl of ATP (final concentration 50 μM). Initial reaction rates were determined with a Molecular Devices SpectraMax Plus plate reader over a 15 minute time course. IC50 and Ki data were calculated from non-linear regression analysis using the Prism software package (GraphPad Prism version 3.0a for Macintosh, GraphPad Software, San Diego Calif., USA).

AKT-3 = AKT-3 (Homo sapiens, UniProt Q9Y243); assay: AKT-3 inhibition assay (standard coupled enzyme assay); details: 170 μM ATP, 200 μM peptide, 45 nM AKT, 30° C.
PDK-1 = biological target: T1, PDK-1 (Homo sapiens, UniProt O15530); assay: PDK-1 inhibition assay (radioactive-phosphate incorporation); details: 40 μM ATP, 65 μM PDKtide, 25 nM PDK-1, 30° C.
T1 sequence (O15530 1-556): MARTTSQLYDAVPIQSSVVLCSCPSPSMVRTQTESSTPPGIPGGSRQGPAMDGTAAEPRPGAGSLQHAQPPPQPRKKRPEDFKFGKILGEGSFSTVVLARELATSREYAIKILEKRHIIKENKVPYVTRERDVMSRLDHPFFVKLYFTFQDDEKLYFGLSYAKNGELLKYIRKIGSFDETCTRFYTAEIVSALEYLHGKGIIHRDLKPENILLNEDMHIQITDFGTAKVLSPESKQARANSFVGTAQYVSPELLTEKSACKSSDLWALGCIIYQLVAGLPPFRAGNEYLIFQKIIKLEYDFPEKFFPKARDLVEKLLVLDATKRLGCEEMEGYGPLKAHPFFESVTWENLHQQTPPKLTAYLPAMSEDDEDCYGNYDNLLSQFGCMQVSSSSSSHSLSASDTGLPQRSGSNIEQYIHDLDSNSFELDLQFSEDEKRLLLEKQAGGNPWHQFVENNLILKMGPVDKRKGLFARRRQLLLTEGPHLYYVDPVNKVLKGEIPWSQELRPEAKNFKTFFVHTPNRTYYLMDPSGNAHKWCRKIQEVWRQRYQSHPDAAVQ

Sequence of AKT-3 (Q9Y243 whole entry): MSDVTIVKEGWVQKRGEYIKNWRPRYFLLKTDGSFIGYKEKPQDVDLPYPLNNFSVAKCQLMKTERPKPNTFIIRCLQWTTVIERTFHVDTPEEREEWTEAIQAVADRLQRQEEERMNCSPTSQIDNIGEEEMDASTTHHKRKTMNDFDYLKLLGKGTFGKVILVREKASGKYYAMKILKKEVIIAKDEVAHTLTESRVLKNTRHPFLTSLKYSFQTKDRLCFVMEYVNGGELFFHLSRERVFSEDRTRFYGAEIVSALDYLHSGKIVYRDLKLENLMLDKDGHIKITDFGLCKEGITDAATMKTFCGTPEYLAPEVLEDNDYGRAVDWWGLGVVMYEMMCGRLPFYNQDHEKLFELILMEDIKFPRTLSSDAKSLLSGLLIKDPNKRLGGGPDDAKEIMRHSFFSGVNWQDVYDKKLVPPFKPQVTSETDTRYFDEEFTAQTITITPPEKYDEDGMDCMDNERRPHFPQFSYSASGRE

| Compound | pKi (PKA) | pKi (AKT-3) | pKi (PDK-1) |
| --- | --- | --- | --- |
| NCC[C@H](C(=O)Nc1ccc2[nH]nc(-c3ccccc3)c2c1)c1ccccc1 [Compound I-1053] | 5.30 to 6.00 | 4.70 to 5.00 | > 6.00 |
| O=C(Nc1ccc2[nH]ncc2c1)[C@H](O)c1cccc(Cl)c1 [Compound I-40] | > 6.00 | 5.00 to 6.00 | – |
| Cc1ccc(-c2n[nH]c3ccc(NC(=O)C(CCN)c4ccccc4)cc23)cc1 (stereo not drawn) [Compound I-249] | > 6.00 | – | > 6.00 |
| NCCC(C(=O)Nc1ccc2[nH]nc(-c3cccc(F)c3)c2c1)c1ccc(Cl)c(Cl)c1 (stereo not drawn) [Compound I-252] | > 6.00 | > 6.00 | – |
| CCNc1cccc(C(=O)Nc2n[nH]c3ccc(NC(=O)C(CCN)c4ccc(Cl)c(Cl)c4)cc23)c1 (stereo not drawn) [Compound I-210] | > 6.00 | > 6.00 | – |
| Cc1n[nH]c2ccc(NC(=O)[C@H](O)c3ccc(F)c(Cl)c3)cc12 [Compound I-77] | > 6.00 | 5.00 to 6.00 | – |
| Cc1n[nH]c2ccc(NC(=O)[C@@H](CCN)c3ccccc3)cc12 [Compound I-1033] | > 6.00 | – | < 5.52 |
| CNc1cccc(C(=O)Nc2n[nH]c3ccc(NC(=O)C(CCN)c4ccc(Cl)c(Cl)c4)cc23)c1 (stereo not drawn) [Compound I-209] | > 6.00 | > 6.00 | – |
| NCCC(C(=O)Nc1ccc2[nH]nc(NC(=O)c3cccc([N+](=O)[O-])c3)c2c1)c1ccc(Cl)c(Cl)c1 (stereo not drawn) [Compound I-208] | > 6.00 | > 6.00 | – |
| O=C(Nc1ccc2[nH]nc(Cl)c2c1)[C@H](O)c1cccc(Cl)c1 [Compound I-78] | > 6.00 | 5.00 to 6.00 | – |
| NCCNC(C(=O)Nc1ccc2[nH]ncc2c1)c1cccc(Cl)c1 (stereo not drawn) [Compound I-59, 2-(2-Amino-ethylamino)-2-(3-chloro-phenyl)-N-(1H-indazol-5-yl)-acetamide] | > 6.00 | > 6.00 | – |
| O=C(Nc1ccc2[nH]ncc2c1)C(O)c1ccc(Cl)cc1 (stereo not drawn) [Compound I-35] | > 6.00 | 5.00 to 6.00 | – |
| CNCCCNC(C(=O)Nc1ccc2[nH]ncc2c1)c1cccc(Cl)c1 (stereo not drawn) [Compound I-67] | > 6.00 | > 6.00 | – |
| Cc1n[nH]c2ccc(NC(=O)[C@H](CCN)c3ccccc3)cc12 [Compound I-1034] | > 6.00 | – | > 6.00 |
| NCCC(C(=O)Nc1ccc2[nH]nc(-c3cccc(CN)c3)c2c1)c1ccccc1 (stereo not drawn) [Compound I-260] | > 6.00 | – | > 6.00 |
| NCCC(C(=O)Nc1ccc2[nH]nc(-c3cccc(C(F)(F)F)c3)c2c1)c1ccccc1 (stereo not drawn) [Compound I-230] | > 6.00 | – | > 6.00 |
| NC[C@H](C(=O)Nc1ccc2[nH]ncc2c1)c1ccc(Cl)c(Cl)c1 [Compound I-243] | > 6.00 | > 6.00 | – |
| C#Cc1cccc(C(=O)Nc2n[nH]c3ccc(NC(=O)C(CCN)c4ccc(Cl)c(Cl)c4)cc23)c1 (stereo not drawn) [Compound I-205] | > 6.00 | > 6.00 | – |
| NC(C(=O)Nc1ccc2[nH]ncc2c1)c1cccc(Br)c1 (stereo not drawn) [Compound I-52] | > 6.00 | 4.70 to 5.00 | – |
| NCCC(C(=O)Nc1ccc2[nH]ncc2c1)c1ccc(F)c(C(F)(F)F)c1 (stereo not drawn) [Compound I-103] | > 6.00 | > 6.00 | – |
| NCC[C@H](C(=O)Nc1ccc2[nH]nc(-c3ccc(C(=O)O)cc3)c2c1)c1ccccc1 [Compound I-263] | > 6.00 | – | > 6.00 |
| NCC(C(=O)Nc1ccc2[nH]ncc2c1)c1cccc(Cl)c1 (stereo not drawn) [Compound I-97] | > 6.00 | > 6.00 | – |
| NCCC(C(=O)Nc1cc(Cl)c2[nH]ncc2c1)c1ccc(Cl)c(Cl)c1 (stereo not drawn) [Compound I-143] | > 6.00 | > 6.00 | – |
| NCCNC(C(=O)Nc1ccc2[nH]ncc2c1)c1ccc2ccccc2c1 (stereo not drawn) [Compound I-73] | > 6.00 | > 6.00 | – |

Continued, values first:

| pKi (PKA) | pKi (AKT-3) | pKi (PDK-1) | Compound |
| --- | --- | --- | --- |
| > 6.00 | > 6.00 | > 6.00 | NCCC(C(=O)Nc1ccc2[nH]nc(NC(=O)c3cccs3)c2c1)c1ccccc1 (stereo not drawn) [Compound I-1043] |
| > 6.00 | 5.00 to 6.00 | < 5.52 | COc1ccccc1C(CCN)C(=O)Nc1ccc2[nH]ncc2c1 (stereo not drawn) [Compound I-113] |
| > 6.00 | > 6.00 | > 6.00 | NCCC(C(=O)Nc1ccc2[nH]nc(-c3ccc(F)cc3)c2c1)c1ccc(Cl)c(Cl)c1 (stereo not drawn) [Compound I-234] |
| > 6.00 | 5.00 to 6.00 | 5.52 to 6.00 | NCCC(C(=O)Nc1ccc2[nH]nc(NCc3ccccc3)c2c1)c1ccc(Cl)c(Cl)c1 (stereo not drawn) [Compound I-158] |
| > 6.00 | > 6.00 | > 6.00 | NCCC(C(=O)Nc1ccc2[nH]nc(NC(=O)c3ccncc3)c2c1)c1ccc(Cl)c(Cl)c1 (stereo not drawn) [Compound I-193] |
| > 6.00 | > 6.00 | > 6.00 | Cc1n[nH]c2ccc(NC(=O)C(CCN)c3ccc(Cl)s3)cc12 (stereo not drawn) [Compound I-139] |
| > 6.00 | > 6.00 | < 5.52 | NCCC(C(=O)Nc1ccc2[nH]ncc2c1)c1cc(C(F)(F)F)cc(C(F)(F)F)c1 (stereo not drawn) [Compound I-105] |
| > 6.00 | > 6.00 | < 5.52 | NCCC(C(=O)Nc1ccc2[nH]nc(NC(=O)c3cc(Cl)cc(Cl)c3)c2c1)c1ccc(Cl)c(Cl)c1 (stereo not drawn) [Compound I-184] |
| > 6.00 | > 6.00 | < 5.52 | CN(C)CC(C(=O)Nc1ccc2[nH]ncc2c1)c1ccc(Cl)c(Cl)c1 (stereo not drawn) [Compound I-227] |
| > 6.00 | > 6.00 | > 6.00 | NCCC(C(=O)Nc1ccc2[nH]nc(Nc3cccc(Cl)c3)c2c1)c1ccc(Cl)c(Cl)c1 (stereo not drawn) [Compound I-162] |
| > 6.00 | > 6.00 | < 5.52 | C=Cc1cccc(C(=O)Nc2n[nH]c3ccc(NC(=O)C(CCN)c4ccc(Cl)c(Cl)c4)cc23)c1 (stereo not drawn) [Compound I-196] |
| > 6.00 | 5.00 to 6.00 | > 6.00 | NCCC(C(=O)Nc1ccc2[nH]nc(-c3ccccc3)c2c1)c1ccccc1 (stereo not drawn) [Compound I-1028] |
| > 6.00 | – | > 6.00 | NCCC(C(=O)Nc1ccc2[nH]nc(-c3ccc(C(=O)O)cc3)c2c1)c1ccccc1 (stereo not drawn) [Compound I-237] |
| > 6.00 | > 6.00 | > 6.00 | COc1cccc(C(=O)Nc2n[nH]c3ccc(NC(=O)C(CCN)c4ccc(Cl)c(Cl)c4)cc23)c1 (stereo not drawn) [Compound I-167] |
| > 6.00 | > 6.00 | > 6.00 | Cc1n[nH]c2ccc(NC(=O)[C@H](CCN)c3cccc(Cl)c3F)cc12 [Compound I-125] |
| > 6.00 | – | > 6.00 | NCCC(C(=O)Nc1ccc2[nH]nc(-c3cccc(F)c3)c2c1)c1ccccc1 (stereo not drawn) [Compound I-240] |
| > 6.00 | > 6.00 | < 5.52 | CNc1n[nH]c2ccc(NC(=O)C(CCN)c3ccc(Cl)c(Cl)c3)cc12 (stereo not drawn) [Compound I-134] |
| > 6.00 | > 6.00 | > 6.00 | NCCC(C(=O)Nc1ccc2[nH]nc(NC(=O)c3cccc(CN)c3)c2c1)c1ccc(Cl)c(Cl)c1 (stereo not drawn) [Compound I-197] |
| > 6.00 | 5.00 to 6.00 | > 6.00 | NCCC(C(=O)Nc1ccc2[nH]nc(CCc3ccccc3)c2c1)c1ccc(Cl)c(Cl)c1 (stereo not drawn) [Compound I-123] |
| > 6.00 | > 6.00 | < 5.52 | NCCC(C(=O)Nc1ccc2[nH]nc(NC(=O)c3cc(F)cc(F)c3)c2c1)c1ccc(Cl)c(Cl)c1 (stereo not drawn) [Compound I-201] |
| > 6.00 | – | > 6.00 | NCCC(C(=O)Nc1ccc2[nH]nc(-c3ccc(-c4nn[nH]n4)cc3)c2c1)c1ccccc1 (stereo not drawn) [Compound I-261] |
| > 6.00 | > 6.00 | > 6.00 | NCCC(C(=O)Nc1ccc2[nH]ncc2c1)c1cccc(OCc2ccccc2)c1 (stereo not drawn) [Compound I-1006] |
| > 6.00 | – | > 6.00 | Cc1n[nH]c2ccc(NC(=O)C(CCN)c3ccccc3F)cc12 (stereo not drawn) [Compound I-1026] |
| > 6.00 | 5.00 to 6.00 | – | O=C(Nc1ccc2[nH]ncc2c1)C(O)c1cc(F)cc(F)c1 (stereo not drawn) [Compound I-43] |
| > 6.00 | > 6.00 | – | NCCC(C(=O)Nc1cc(Br)c2[nH]ncc2c1)c1ccc(Cl)c(Cl)c1 (stereo not drawn) [Compound I-144] |
| > 6.00 | 4.70 to 5.00 | – | O=C(Cc1cccc(C(F)(F)F)c1)Nc1ccc2[nH]ncc2c1 [Compound I-2] |
